pKi: −log10 of the molar value.
What follows are molecules tested against T1, recombinant human NK3 receptor (Homo sapiens, UniProt P29371) (assay: [3H]SR142801 competition binding assay). Details: [3H]SR142801, membranes of HEK293 cells transiently expressing recombinant human NK3 receptor; read-out: hNK3 Ki.
T1 construct: expressed in transfected cells; host or cells: HEK293 cells, transient expression; membrane preparation
T1 sequence (P29371 1-465): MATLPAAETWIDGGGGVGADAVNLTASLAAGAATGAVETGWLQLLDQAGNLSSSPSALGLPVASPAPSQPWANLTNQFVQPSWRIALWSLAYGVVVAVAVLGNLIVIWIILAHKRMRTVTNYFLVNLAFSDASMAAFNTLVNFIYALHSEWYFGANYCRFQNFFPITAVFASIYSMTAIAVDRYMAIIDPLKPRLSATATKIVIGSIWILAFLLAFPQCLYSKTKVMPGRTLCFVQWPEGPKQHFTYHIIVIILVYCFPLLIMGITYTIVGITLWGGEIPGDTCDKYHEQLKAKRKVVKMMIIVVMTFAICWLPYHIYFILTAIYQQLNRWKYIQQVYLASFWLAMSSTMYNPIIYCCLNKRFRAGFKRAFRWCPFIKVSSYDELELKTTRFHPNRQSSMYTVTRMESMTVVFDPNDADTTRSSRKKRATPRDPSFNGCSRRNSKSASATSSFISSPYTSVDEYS
Procedure: [^3H]SR142801 Competition Binding Assay
hNK3 receptor binding experiment were performed using [^3H]SR142801 (Catalog No. TRK1035, specific activity: 74.0 Ci/mmol, Amersham, GE Healthcare UK limited, Buckinghamshire, UK) and membrane isolated from HEK293 cells transiently expressing recombinant human NK3 receptor. After thawing, the membrane homogenates were centrifuged at 48,000×g for 10 min at 4° C., the pellets were resuspended in the 50 mM Tris-HCl, 4 mM MnCl2, 1 μM phosphoramidon, 0.1% BSA binding buffer at pH 7.4 to a final assay concentration of 5 μg protein/well. For inhibition experiments, membranes were incubated with [^3H]SR142801 at a concentration equal to KD value of radioligand and 10 concentrations of the inhibitory compound (0.0003-10 μM) (in a total reaction volume of 500 μl) for 75 min at room temperature (RT). At the end of the incubation, membranes were filtered onto unitfilter (96-well white microplate with bonded GF/C filter preincubated 1 h in 0.3% PEI+0.3% BSA, Packard BioScience, Meriden, Conn.) with a Filtermate 196 harvester (Packard BioScience) and washed 4 times with ice-cold 50 mM Tris-HCl, pH 7.4 buffer. Nonspecific binding was measured in the presence of 10 μM SB222200 for both radioligands. The radioactivity on the filter was counted (5 min) on a Packard Top-count microplate scintillation counter with quenching correction after addition of 45 μl of microscint 40 (Canberra Packard S. A., Zurich, Switzerland) and shaking for 1 h. Inhibition curves were fitted according to the Hill equation: y=100/(1+(x/IC50)^nH), where nH=slope factor using Excel-fit 4 software ([…]). IC50 values were derived from the inhibition curve and the affinity constant (IQ values were calculated using the Cheng-Prussoff equation Ki=IC50/(1+[L]/KD) where [L] is the concentration of radioligand and KD is its dissociation constant at the receptor, derived from the saturation isotherm. All experiments were performed in duplicate and the mean±standard error (SEM) of the individual Ki values was calculated.

| Structure (SMILES) | pKi |
| --- | --- |
| CC(=O)N(C1CC1)C1CCN(CCC(C)(C(=O)N[C@@H](CO)c2ccc(Cl)cc2)c2ccc(Cl)c(Cl)c2)CC1 (single isomer, unassigned; diastereoisomer 1) [Example 142, 4-[4-(Acetyl-cyclopropyl-amino)-piperidin-1-yl]-N-[1-(4-chloro-phenyl)-2-hydroxy-ethyl]-2-(3,4-dichloro-phenyl)-2-methyl-butyramide (diastereoisomer 1)] | 7.96 |
| CC(=O)N(C1CC1)C1CCN(CCC(C)(C(=O)N[C@@H](CO)c2ccc(Cl)c(Cl)c2)c2ccc(Cl)c(Cl)c2)CC1 (single isomer, unassigned; diastereoisomer 1) [Example 144, 4-[4-(Acetyl-cyclopropyl-amino)-piperidin-1-yl]-2-(3,4-dichloro-phenyl)-N-[1-(3,4-dichloro-phenyl)-2-hydroxy-ethyl]-2-methyl-butyramide (diastereoisomer 1)] | 8.00 |
| COCCN(C(C)=O)C1CCN(CCC(C)(C(=O)N[C@@H](CO)c2ccc(F)cc2)c2ccc(Cl)c(Cl)c2)CC1 (single isomer, unassigned; diastereoisomer 1) [Example 146, 4-{4-[Acetyl-(2-methoxy-ethyl)-amino]-piperidin-1-yl}-2-(3,4-dichloro-phenyl)-N-[1-(4-fluoro-phenyl)-2-hydroxy-ethyl]-2-methyl-butyramide (diastereoisomer 1)] | 9.15 |
| CC(=O)NC1CCN(CCC(C)(C(=O)N[C@@H](CO)c2ccc(F)cc2)c2ccc(Cl)c(Cl)c2)CC1 (single isomer, unassigned; diastereoisomer 1) [Example 154, 4-(4-Acetylamino-piperidin-1-yl)-2-(3,4-dichloro-phenyl)-N-[1-(4-fluoro-phenyl)-2-hydroxy-ethyl]-2-methyl-butyramide (diastereoisomer 1)] | 6.77 |
| CC(=O)NC1CCN(CCC(C)(C(=O)N[C@@H](CO)c2ccc(Cl)cc2)c2ccc(Cl)c(Cl)c2)CC1 (single isomer, unassigned; diastereoisomer 1) [Example 156, 4-(4-Acetylamino-piperidin-1-yl)-N-[1-(4-chloro-phenyl)-2-hydroxy-ethyl]-2-(3,4-dichloro-phenyl)-2-methyl-butyramide (diastereoisomer 1)] | 7.30 |
| CC(=O)NC1CCN(CCC(C)(C(=O)N[C@@H](CO)c2ccc(Cl)c(Cl)c2)c2ccc(Cl)c(Cl)c2)CC1 (single isomer, unassigned; diastereoisomer 1) [Example 158] | 7.46 |
| CN(C1CCN(CCC(C)(C(=O)N[C@H](CO)c2ccc(Cl)c(Cl)c2)c2ccc(Cl)c(Cl)c2)CC1)S(C)(=O)=O (single isomer, unassigned; diastereoisomer 2) [Example 50, 2-(3,4-Dichloro-phenyl)-N-[1-(3,4-dichloro-phenyl)-2-hydroxy-ethyl]-4-[4-(methanesulfonyl-methyl-amino)-piperidin-1-yl]-2-methyl-butyramide; diastereoisomer 2] | 7.28 |
| CCN(C1CCN(CCC(C)(C(=O)N[C@H](CO)c2ccc(Cl)c(Cl)c2)c2ccc(Cl)c(Cl)c2)CC1)S(C)(=O)=O (single isomer, unassigned; diastereoisomer 2) [Example 80, 2-(3,4-Dichloro-phenyl)-N-[1-(3,4-dichloro-phenyl)-2-hydroxy-ethyl]-4-[4-(ethyl-methanesulfonyl-amino)-piperidin-1-yl]-2-methyl-butyramide; diastereoisomer 2] | 7.88 |
| CC(CCN1CCC(N2CCCC2=O)CC1)(C(=O)N[C@H](CO)c1ccc(Cl)c(Cl)c1)c1ccc(Cl)c(Cl)c1 (single isomer, unassigned; diastereoisomer 2) [Example 98, 2-(3,4-Dichloro-phenyl)-N-[1-(3,4-dichloro-phenyl)-2-hydroxy-ethyl]-2-methyl-4-[4-(2-oxo-pyrrolidin-1-yl)-piperidin-1-yl]-butyramide; diastereoisomer 2] | 7.30 |
| CC(=O)N(C)C1CCN(CCC(C)(C(=O)N[C@H](CO)c2ccc(Cl)c(Cl)c2)c2ccc(Cl)c(Cl)c2)CC1 (single isomer, unassigned; diastereoisomer 2) [Example 110, 4-[4-(Acetyl-methyl-amino)-piperidin-1-yl]-2-(3,4-dichloro-phenyl)-N-[1-(3,4-dichloro-phenyl)-2-hydroxy-ethyl]-2-methyl-butyramide; diastereoisomer 2] | 6.96 |
| CC(=O)N(C)C1CCN(CCC(C)(C(=O)N[C@H](CO)c2ccc(F)cc2)c2ccc(Cl)c(Cl)c2)CC1 (single isomer, unassigned; diastereoisomer 2) [Example 139, 4-[4-(Acetyl-methyl-amino)-piperidin-1-yl]-2-(3,4-dichloro-phenyl)-N-[1-(4-fluoro-phenyl)-2-hydroxy-ethyl]-2-methyl-butyramide (diastereoisomer 2)] | 6.85 |
| CC(=O)N(C1CC1)C1CCN(CCC(C)(C(=O)N[C@H](CO)c2ccc(F)cc2)c2ccc(Cl)c(Cl)c2)CC1 (single isomer, unassigned; diastereoisomer 2) [Example 141, 4-[4-(Acetyl-cyclopropyl-amino)-piperidin-1-yl]-2-(3,4-dichloro-phenyl)-N-[1-(4-fluoro-phenyl)-2-hydroxy-ethyl]-2-methyl-butyramide (diastereoisomer 2)] | 6.78 |
| CC(=O)N(C1CC1)C1CCN(CCC(C)(C(=O)N[C@@H](CO)c2ccc(Cl)cc2)c2ccc(Cl)c(Cl)c2)CC1 (single isomer, unassigned; diastereoisomer 2) [Example 143, 4-[4-(Acetyl-cyclopropyl-amino)-piperidin-1-yl]-N-[1-(4-chloro-phenyl)-2-hydroxy-ethyl]-2-(3,4-dichloro-phenyl)-2-methyl-butyramide (diastereoisomer 2)] | 7.06 |
| CC(=O)N(C1CC1)C1CCN(CCC(C)(C(=O)N[C@H](CO)c2ccc(Cl)c(Cl)c2)c2ccc(Cl)c(Cl)c2)CC1 (single isomer, unassigned; diastereoisomer 2) [Example 145, 4-[4-(Acetyl-cyclopropyl-amino)-piperidin-1-yl]-2-(3,4-dichloro-phenyl)-N-[1-(3,4-dichloro-phenyl)-2-hydroxy-ethyl]-2-methyl-butyramide (diastereoisomer 2)] | 7.30 |
| CC(=O)NC1CCN(CCC(C)(C(=O)N[C@H](CO)c2ccc(F)cc2)c2ccc(Cl)c(Cl)c2)CC1 (single isomer, unassigned; diastereoisomer 2) [Example 155, 4-(4-Acetylamino-piperidin-1-yl)-2-(3,4-dichloro-phenyl)-N-[1-(4-fluoro-phenyl)-2-hydroxy-ethyl]-2-methyl-butyramide (diastereoisomer 2)] | 7.86 |
| CC(=O)NC1CCN(CCC(C)(C(=O)N[C@@H](CO)c2ccc(Cl)cc2)c2ccc(Cl)c(Cl)c2)CC1 (single isomer, unassigned; diastereoisomer 2) [Example 157, 4-(4-Acetylamino-piperidin-1-yl)-N-[1-(4-chloro-phenyl)-2-hydroxy-ethyl]-2-(3,4-dichloro-phenyl)-2-methyl-butyramide (diastereoisomer 2)] | 6.11 |
| CC(=O)NC1CCN(CCC(C)(C(=O)N[C@H](CO)c2ccc(Cl)c(Cl)c2)c2ccc(Cl)c(Cl)c2)CC1 (single isomer, unassigned; diastereoisomer 2) [Example 159] | 6.59 |
| CCCN(C(C)=O)C1CCN(CCC(C)(C(=O)N[C@@H](CO)c2ccc(F)cc2)c2ccc(Cl)c(Cl)c2)CC1 (single isomer, unassigned; epimer 1) [Example 162] | 9.30 |
| CCN(C(C)=O)C1CCN(CCC(C)(C(=O)N[C@@H](CO)c2ccc(F)cc2)c2ccc(Cl)c(Cl)c2)CC1 (single isomer, unassigned; epimer 1) [Example 166] | 8.66 |
| CCCN(C(C)=O)C1CCN(CCC(C)(C(=O)N[C@@H](CO)c2ccc(F)cc2)c2ccc(Cl)c(Cl)c2)CC1 (single isomer, unassigned; epimer 2) [Example 163] | 8.25 |

Same assay, conditions: representative compounds; [3H]SR142801, HEK293 membranes, human NK3 receptor; read-out: Ki NK3 h

| Structure (SMILES) | pKi |
| --- | --- |
| COCCN(C(C)=O)C1CCN(CCC(C)(C(=O)N[C@@H](CO)c2ccc(F)cc2)c2ccc(Cl)c(Cl)c2)CC1 (single isomer, unassigned; diastereoisomer 1) [Example 146, 4-{4-[Acetyl-(2-methoxy-ethyl)-amino]-piperidin-1-yl}-2-(3,4-dichloro-phenyl)-N-[1-(4-fluoro-phenyl)-2-hydroxy-ethyl]-2-methyl-butyramide (diastereoisomer 1)] | 9.15 |
| CCCN(C(C)=O)C1CCN(CCC(C)(C(=O)N[C@@H](CO)c2ccc(F)cc2)c2ccc(Cl)c(Cl)c2)CC1 (single isomer, unassigned; epimer 1) [Example 162] | 9.30 |
| CCN(C(C)=O)C1CCN(CCC(C)(C(=O)N[C@@H](CO)c2ccc(F)cc2)c2ccc(Cl)c(Cl)c2)CC1 (single isomer, unassigned; epimer 1) [Example 166] | 8.66 |
| CCCN(C(C)=O)C1CCN(CCC(C)(C(=O)N[C@@H](CO)c2ccc(F)cc2)c2ccc(Cl)c(Cl)c2)CC1 (single isomer, unassigned; epimer 2) [Example 163] | 8.25 |

— patent publication US20110021565A1, “PIPERIDINE DERIVATIVES AS NK3 ANTAGONISTS” (priority 2007, published 2011)
